# Results as given in patent publication US12227551B2, “Membrane bound IL12 compositions and methods for tunable regulation” (Obsidian Therapeutics, Inc., priority 2018, dated 2025).
# Test system: primary human T cells
# Test: Surface CAR and surface IL12 in CAR+ gate after 20 hours vardenafil, CD19-CAR-P2A-mbIL12-PDE5 constructs (Example 8; Table 22)
# Format: cell-based
# Settings: 5 μM Vardenafil, CAR+ cell gate, regulated CD19-CAR-P2A-mbIL12-PDE5 constructs
# Experimental: On day 0, primary human T cells were stimulated with Dynabeads (T-expander CD3/CD28) at a 3:1 bead: cell ratio in media containing 10% fetal bovine serum (FBS). The next day, lentivirus produced with constructs OT-001407 (CAR only control), OT-001895, OT-001894, OT-001891, OT-002044 were added in the presence of reduced serum (5% FBS). On day 2, the cells were diluted 1:2 with fresh 10% FBS media. […] After overnight incubation, transduction efficiency was analyzed by flow cytometry using CD19-Fc to detect surface CAR expression. Surface IL12 expression within the CAR+ cell gate was detected with an anti-IL12p70 antibody (BD, Franklin Lakes, N.J.) and is shown in Table 22.
smiles,measurement,value
"CCCc1nc(C)c2c(=O)[nH]c(-c3cc(S(=O)(=O)N4CCN(CC)CC4)ccc3OCC)nn12 [vardenafil, Vardenafil]",increases in expression of surface IL12 compared to vehicle control,17-24 fold
